Test results reported in patent publication US20230174484A1, “ANTAGONISTS OF GPR39 PROTEIN” (Oregon Health & Science University, priority 2020, published 2023).
Structures can show the parent of a compound that is named as a salt.

Target: T1, human GPR39 receptor (Homo sapiens, UniProt O43194)
T1 construct: PC3 Cells, Expressing the Endogenous Human GPR39 Receptor; endogenous in cells; host or cells: PC3 (human prostate adenocarcinoma) cells
T1 sequence (O43194 1-453): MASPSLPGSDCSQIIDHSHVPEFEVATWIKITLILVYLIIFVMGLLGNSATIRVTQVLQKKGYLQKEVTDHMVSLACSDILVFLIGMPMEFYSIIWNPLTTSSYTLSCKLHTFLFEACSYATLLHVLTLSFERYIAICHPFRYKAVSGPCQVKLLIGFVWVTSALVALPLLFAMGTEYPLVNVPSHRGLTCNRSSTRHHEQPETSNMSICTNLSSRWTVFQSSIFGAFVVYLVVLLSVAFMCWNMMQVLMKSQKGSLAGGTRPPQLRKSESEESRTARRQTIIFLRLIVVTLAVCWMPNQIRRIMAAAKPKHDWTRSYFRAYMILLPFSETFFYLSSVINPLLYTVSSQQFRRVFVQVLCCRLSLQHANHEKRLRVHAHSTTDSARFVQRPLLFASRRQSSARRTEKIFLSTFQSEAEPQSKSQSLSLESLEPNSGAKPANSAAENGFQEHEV
Experiment: Measurement of intracellular calcium response in PC3 cells (FLIPR), antagonism of the C3 agonist response
Type: cell-based
Details: functional pKi (modified Cheng-Prusoff), inhibition of the C3 (TC-G 1008) response at EC90, 30 μM ZnCl2, read-out: fpKi activity
Summary of the method: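 PC3 cells with endogenous human GPR39 were loaded with Calcium-6 and read by FLIPR, with compounds tested in buffer with 30 μM final ZnCl2 and 0.32% DMSO. Peak Ca2+ signal was scored as % inhibition of the EC90 C3 response, fitted by four-parameter logistic. Functional pKi was derived via the modified Cheng-Prusoff equation.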

SMILES | Ki [nM]
O=C(Nc1ccc(C(=O)N2CC[S+]([O-])CC2c2ccccc2)c(N2CCCC2)c1)C1CC1 (racemic) [Example 169, N-[4-(1-oxo-3-phenyl-1,4-thiazinane-4-carbonyl)-3-pyrrolidin-1-ylphenyl]cyclopropanecarboxamide] | 1260 to 6310
CN1CCn2c(cnc2-c2ccc(NC(=O)C3CC3)cc2N2CCCC2)C1 [Example 103, N-[4-(7-methyl-6,8-dihydro-5H-imidazo[1,5-a]pyrazin-3-yl)-3-pyrrolidin-1-ylphenyl]cyclopropanecarboxamide] | 316 to 1000
CC(C)C1CCN(c2nc(NC(=O)C3CC3)ccc2C(=O)N2CCS(=O)(=O)CC2)C1 (racemic) [Example 142, N-[5-(1,1-dioxo-1,4-thiazinane-4-carbonyl)-6-(3-propan-2-ylpyrrolidin-1-yl)pyridin-2-yl]cyclopropanecarboxamide] | ≤ 50.1
CN1CCN(C(=O)c2ccc(NC(=O)C3CC3)cc2N2CC3(CCOC3)C2)C(c2ccccc2)C1 (stereo not shown) [Example 205, N-[4-(4-methyl-2-phenylpiperazine-1-carbonyl)-3-(6-oxa-2-azaspiro[3.4]octan-2-yl)phenyl]cyclopropanecarboxamide] | 63.1 to 251
CC(C)c1ccn(-c2cc(NC(=O)C3CC3)ccc2C(=O)N2CCS(=O)(=O)CC2)n1 [Example 179, N-[4-(1,1-dioxo-1,4-thiazinane-4-carbonyl)-3-(3-propan-2-ylpyrazol-1-yl)phenyl]cyclopropanecarboxamide] | ≤ 50.1
CCCN1CCN(C(=O)c2ccc(NC(=O)C3CC3)cc2-n2ccc(C(F)(F)F)n2)CC1 [Example 158, N-[4-(4-propylpiperazine-1-carbonyl)-3-[3-(trifluoromethyl)pyrazol-1-yl]phenyl]cyclopropanecarboxamide] | ≤ 50.1
O=C(Nc1ccc(C(=O)N2CCS(=O)(=O)CC2)c(-n2ccc(C3CC3)n2)c1)C1CC1 [Example 180, N-[3-(3-cyclopropylpyrazol-1-yl)-4-(1,1-dioxo-1,4-thiazinane-4-carbonyl)phenyl]cyclopropanecarboxamide] | ≤ 50.1
O=C(Nc1ccc(C(=O)N2CCN(Cc3ccon3)CC2)c(N2CCCCCC2)c1)C1CC1 [Example 22, N-(3-(azepan-1-yl)-4-(4-(isoxazol-3-ylmethyl)piperazine-1-carbonyl)phenyl) cyclopropanecarboxamide] | 63.1 to 251
CS(=O)(=O)N1CCN(C(=O)c2ccc(NC(=O)C3CC3)cc2N2CCCC2)C(c2ccccc2)C1 (stereo not shown) [Example 215, N-[4-(4-methylsulfonyl-2-phenylpiperazine-1-carbonyl)-3-pyrrolidin-1-ylphenyl]cyclopropanecarboxamide] | 63.1 to 251
CN1CCN(C(=O)c2ccc(NC(=O)C3CC3)cc2N2CCCC2)C(c2cncnc2)C1 (racemic) [Example 175, N-[4-(4-methyl-2-pyrimidin-5-ylpiperazine-1-carbonyl)-3-pyrrolidinylphenyl]cyclopropanecarboxamide] | 316 to 1000
CCCN1CCN(C(=O)c2ccc(Nc3nnc(C4CC4)[nH]3)cc2N2CCCCCC2)CC1 [Example 98] | 1260 to 6310
CN1CCN(C(=O)c2ccc(NC(=O)C3CC3)cc2N2CCCC2)C(c2ccc(F)cc2)C1 (racemic) [Example 89, N-[4-[2-(4-fluorophenyl)-4-methylpiperazine-1-carbonyl]-3-pyrrolidin-1ylphenyl]cyclopropanecarboxamide] | 316 to 1000
O=C(Nc1ccc(C(=O)N2CCS(=O)(=O)CC2)c(N2CCCC(F)(F)C2)c1)C1CC1 [Example 191, N-[3-(3,3-difluoropiperidin-1-yl)-4-(1,1-dioxo-1,4-thiazinane-4-carbonyl)phenyl]cyclopropanecarboxamide] | 1260 to 6310
CCCN1CCN(C(=O)c2ccc(NC(=O)C3CCC3)cc2N2CCCCCC2)CC1 [Example 90, N-(3-(azepan-1-yl)-4-(4-propylpiperazine-1-carbonyl)phenyl)cyclobutanecarboxamide] | 1260 to 6310
O=C(NCc1cccnc1)c1ccc(NC(=O)C2CC2)cc1N1CCCCCC1 [Example 44, 2-(azepan-1-yl)-4-(cyclopropanecarbonylamino)-N-(pyridin-3-ylmethyl)benzamide] | 1260 to 6310
O=C(Nc1ccc(C(=O)N2CCn3c(nnc3C(F)(F)F)C2)c(N2CCCCCC2)c1)C1CC1 [Example 41] | 1260 to 6310
O=C(Nc1ccc(C(=O)N2CCC(F)(F)CC2)c(N2CCCC2)c1)C1CC1 [Example 59, N-[4-(4,4-difluoropiperidine-1-carbonyl)-3-pyrrolidin-1-ylphenyl]cyclopropanecarboxamide] | 63.1 to 251

Next, values leading:

Ki [nM] | SMILES
63.1 to 251 | Cc1nnc(-c2ccc(C(=O)N3CCN(C)CC3c3ccccc3)c(N3CCCC3)c2)[nH]1 (single isomer, unassigned) [Example 150a, (2R or 2S) (4-methyl-2-phenylpiperazin-1-yl)-[4-(5-methyl-4H-1,2,4-triazol-3-yl)-2-pyrrolidin-1-ylphenyl]methanone]
63.1 to 251 | CN1CCN(C(=O)c2ccc(NC(=O)C3CC3)cc2N2CCCC2)C(c2ccccc2)C1 (racemic) [Example 62c, N-[4-(4-methyl-2-phenylpiperazine-1-carbonyl)-3-pyrrolidin-1-ylphenyl]Cyclopropanecarboxamide]
≤ 50.1 | CCCN1CCN(C(=O)c2ccc(NC(=O)C3CC3)cc2N2CCCCCC2)C(c2ccccc2)C1 (single isomer, unassigned) [Example 73a, N-[3-(azepan-1-yl)-4-(2-phenyl-4-propylpiperazine-1-carbonyl)phenyl]Cyclopropanecarboxamide]
63.1 to 251 | CN1CCN(C(=O)c2ccc(NC(=O)C3CC3)cc2N2CCCC2)C(c2cccc(F)c2)C1 (racemic) [Example 88c, N-[4-[2-(3-fluorophenyl)-4-methylpiperazine-1-carbonyl]-3-pyrrolidin-1-ylphenyl]cyclopropanecarboxamide]
316 to 1000 | CN1CCN(C(=O)c2ccc(NC(=O)C3CC3)cc2N2CCC3(CCC3)C2)C(c2ccccc2)C1 (single isomer, unassigned) [Example 66b, N-[3-(6-azaspiro[3.4]octan-6-yl)-4-(4-methyl-2-phenylpiperazine-1-carbonyl)phenyl]cyclopropanecarboxamide]
≤ 50.1 | CC1CC(C)CN(c2cc(NC(=O)C3CC3)ccc2C(=O)N2CCN(C)CC2c2ccccc2)C1 (single isomer, unassigned) [Example 68f, Syn 2R or 2S N-[3-[3,5-dimethylpiperidin-1-yl]-4-(4-methyl-2-phenylpiperazine-1-carbonyl)phenyl]cyclopropanecarboxamide hydrochloride]
63.1 to 251 | CN1CCN(C(=O)c2ccc(NC(=O)C3CC3)cc2N2CCC(C(F)(F)F)C2)C(c2ccccc2)C1 (single isomer, unassigned) [Example 199c, (2S, 3R) or (2R, 3S) or (2R, 3R) or (2S, 3S) N-[4-(4-methyl-2-phenylpiperazine-1-carbonyl)-3-[3-(trifluoromethyl)pyrrolidin-1-yl]phenyl]cyclopropanecarboxamide]
63.1 to 251 | O=C(Nc1ccc(C(=O)N2CCS(=O)(=O)CC2)c(N2CCC(C(F)(F)F)C2)c1)C1CC1 (racemic) [Example 183c, N-[4-(1,1-dioxo-1,4-thiazinane-4-carbonyl)-3-[3-(trifluoromethyl)pyrrolidin-1-yl]phenyl]cyclopropanecarboxamide]
